Like-named read-outs stand apart in the source and are kept apart here.
Key:
[1] = target: ALPK1 (Homo sapiens (Human), UniProt Q96QP1); assay: ALPK1 in vitro kinase assay (HTRF of TIFA phosphorylation); assay type: biochemical
[2] = test system: ALPK1-dependent NFκB reporter gene activation in HEK293 cells stably expressing an NF-kB reporter (G9 cells); assay: NFκB gene reporter alkaline phosphatase assay; assay type: cell-based; conditions: read-out: NFkB assay IC50
Method in brief: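 Inhibition of ALPK1-driven NF-kB activation is measured as reduced reporter phosphatase activity after agonist challenge with D-glycero-D-manno-6-fluoro-heptose-1β-S-ADP. Cells receive serially diluted compound 30 min beforehand. Values are IC50s from non-linear regression.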

Chain of ALPK1 (Q96QP1 whole entry): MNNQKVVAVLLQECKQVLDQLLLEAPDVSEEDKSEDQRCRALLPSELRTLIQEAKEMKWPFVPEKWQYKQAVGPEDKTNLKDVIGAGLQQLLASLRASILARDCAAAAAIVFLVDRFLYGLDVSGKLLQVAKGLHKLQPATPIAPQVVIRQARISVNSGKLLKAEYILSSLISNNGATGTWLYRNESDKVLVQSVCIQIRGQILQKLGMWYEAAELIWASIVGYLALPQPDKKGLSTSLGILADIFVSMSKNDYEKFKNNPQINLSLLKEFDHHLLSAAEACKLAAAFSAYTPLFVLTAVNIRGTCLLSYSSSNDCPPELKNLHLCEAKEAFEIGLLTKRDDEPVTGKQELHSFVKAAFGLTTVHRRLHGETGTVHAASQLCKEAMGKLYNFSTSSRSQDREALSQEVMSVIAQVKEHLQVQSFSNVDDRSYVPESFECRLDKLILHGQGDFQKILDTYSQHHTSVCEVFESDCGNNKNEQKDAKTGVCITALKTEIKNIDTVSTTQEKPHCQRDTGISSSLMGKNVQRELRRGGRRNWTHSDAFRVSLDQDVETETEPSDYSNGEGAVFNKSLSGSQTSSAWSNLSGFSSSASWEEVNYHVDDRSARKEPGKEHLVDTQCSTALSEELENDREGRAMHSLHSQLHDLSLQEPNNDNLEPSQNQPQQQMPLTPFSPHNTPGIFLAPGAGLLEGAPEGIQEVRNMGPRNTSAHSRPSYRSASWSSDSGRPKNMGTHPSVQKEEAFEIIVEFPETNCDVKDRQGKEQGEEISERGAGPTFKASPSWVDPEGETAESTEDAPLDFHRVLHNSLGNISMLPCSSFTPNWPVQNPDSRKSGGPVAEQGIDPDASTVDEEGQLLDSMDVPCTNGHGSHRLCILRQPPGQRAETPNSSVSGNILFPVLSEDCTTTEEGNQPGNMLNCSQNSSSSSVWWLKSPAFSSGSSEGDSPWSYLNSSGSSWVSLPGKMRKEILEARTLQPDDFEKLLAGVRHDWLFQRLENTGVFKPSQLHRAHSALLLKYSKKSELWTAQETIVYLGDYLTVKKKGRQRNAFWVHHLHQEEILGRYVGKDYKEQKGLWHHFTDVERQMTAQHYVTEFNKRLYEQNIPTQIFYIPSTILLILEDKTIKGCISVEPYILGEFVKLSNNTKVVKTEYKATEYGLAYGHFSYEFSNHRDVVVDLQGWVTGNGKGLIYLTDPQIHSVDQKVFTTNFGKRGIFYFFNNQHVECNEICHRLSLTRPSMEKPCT

`COc1ccc(C(C)(C)c2csc(NC(=O)NCc3ccc(N4CCC(N)C4)nc3)n2)cc1` (centres unmarked) [Example A186, 1-((6-(3-aminopyrrolidin-1-yl)pyridin-3-yl)methyl)-3-(4-(2-(4-methoxyphenyl)propan-2-yl)thiazol-2-yl)urea] was tested. Which IC50 [1] did it give?
Its IC50 is 19 nM.

And the IC50 [2]?
The IC50 was 1550 nM.

Which IC50 [1] does the source give for `COc1ccc(C(C)(C)c2csc(NC(=O)NCc3cnc(N4CCC(N)C4)nc3)n2)cc1` (centres unmarked) [Example A187, 1-((2-(3-aminopyrrolidin-1-yl)pyrimidin-5-yl)methyl)-3-(4-(2-(4-methoxyphenyl)propan-2-yl)thiazol-2-yl)urea] here?
The IC50 was 7 nM.

And the IC50 ([2]; Homo sapiens, HEK293)?
Its IC50 is 700 nM.

For `CC(C)(c1ccc(Br)cc1)c1csc(NC(=O)NCc2ccc(N3CCC(N)C3)nc2)n1` (centres unmarked) [Example A189, 1-((6-(3-aminopyrrolidin-1-yl)pyridin-3-yl)methyl)-3-(4-(2-(4-bromophenyl)propan-2-yl)thiazol-2-yl)urea], which IC50 [1] is on record?
Its IC50 is 41 nM.

And the IC50 ([2]; Homo sapiens, HEK293)?
The IC50 was 2310 nM.

`COc1ccc(C(C)(C)c2csc(NC(=O)NCC3CC(N)C3)n2)cc1` (centres unmarked) [Example A190, 1-((3-aminocyclobutyl)methyl)-3-(4-(2-(4-methoxyphenyl)propan-2-yl)thiazol-2-yl)urea] was tested. Which IC50 [1] did it give?
Its IC50 is 458 nM.

What about the IC50 ([2]; Homo sapiens, HEK293) of the same molecule?
The IC50 was 3020 nM.

How did the IC50 [1] turn out when `NC1CCN(c2ccc(CNC(=O)Nc3nc(C4(c5ccc(Br)cc5)CCCC4)cs3)cc2)CC1` [Example A191, 1-(4-(4-aminopiperidin-1-yl)benzyl)-3-(4-(1-(4-bromophenyl)cyclopent-yl)thiazol-2-yl)urea] was run?
Its IC50 is 80 nM.

What about the IC50 ([2]; Homo sapiens, HEK293) of the same molecule?
The IC50 was 6910 nM.

For `O=C(NCc1cc(F)c(N2CCNCC2)c(F)c1)Nc1nc(C2(c3ccc(Br)cc3)CCCC2)cs1` [Example A192, 1-(4-(1-(4-bromophenyl)cyclopent-yl)thiazol-2-yl)-3-(3,5-difluoro-4-(piperazin-1-yl)benzyl)urea], which IC50 [1] is on record?
Its IC50 is 106 nM.

And the IC50 ([2]; Homo sapiens, HEK293)?
Its IC50 is 4340 nM.

Which results are given for `CC1CN(c2ccc(CNC(=O)Nc3nc(C(C)(C)c4ccc(Br)cc4)cs3)cc2)CCN1` (centres unmarked) [Example A194, 1-(4-(2-(4-bromophenyl)propan-2-yl)thiazol-2-yl)-3-(4-(3-methylpiperazin-1-yl)benzyl)urea]?
IC50 [1]: 172 nM; IC50 ([2]; Homo sapiens, HEK293): 3710 nM

Which IC50 [1] does the source give for `CC(C)(c1ccc(Br)cc1)c1csc(NC(=O)NCc2ccc(N3CCNC(=O)C3)cc2)n1` [Example A195, 1-(4-(2-(4-bromophenyl)propan-2-yl)thiazol-2-yl)-3-(4-(3-oxopiperazin-1-yl)benzyl)urea] here?
Its IC50 is 132 nM.

And the IC50 ([2]; Homo sapiens, HEK293)?
The IC50 was 9940 nM.

Which IC50 [1] does the source give for `CC(C)(c1ccc(Br)c(F)c1)c1csc(NC(=O)NCc2cnc(N3CCNCC3)nc2)n1` [Example A196, 1-(4-(2-(4-bromo-3-fluorophenyl)propan-2-yl)thiazol-2-yl)-3-((2-(piperazin-1-yl)pyrimidin-5-yl)methyl)urea] here?
The IC50 was 76 nM.

What about the IC50 ([2]; Homo sapiens, HEK293) of the same molecule?
Its IC50 is 3340 nM.

What does the source list for `CC(C)(c1ccc(Br)cc1)c1csc(NC(=O)NCc2ccc(NCCN)c(F)c2)n1` [Example A198, 1-(4-((2-aminoethyl)amino)-3-fluorobenzyl)-3-(4-(2-(4-bromophenyl)propan-2-yl)thiazol-2-yl)urea]?
IC50 [1]: 18 nM; IC50 ([2]; Homo sapiens, HEK293): 1320 nM

`COc1ccc(C(C)(C)c2csc(NC(=O)NCc3ccc(N4CCC(N)C4)cn3)n2)cc1` (centres unmarked) [Example A200, 1-((5-(3-aminopyrrolidin-1-yl)pyridin-2-yl)methyl)-3-(4-(2-(4-methoxyphenyl)propan-2-yl)thiazol-2-yl)urea] was tested. Which IC50 [1] did it give?
The IC50 was 43 nM.

What about the IC50 ([2]; Homo sapiens, HEK293) of the same molecule?
Its IC50 is 520 nM.

With `COc1ccc(C(C)(C)c2csc(NC(=O)NCc3cc(F)c(N4CCC(N)C4)c(F)c3)n2)cc1` (centres unmarked) [Example A201, 1-(4-(3-aminopyrrolidin-1-yl)-3,5-difluorobenzyl)-3-(4-(2-(4-methoxyphenyl)propan-2-yl)thiazol-2-yl)urea] as the molecule, how does the IC50 [1] read?
Its IC50 is 25 nM.

And the IC50 ([2]; Homo sapiens, HEK293)?
Its IC50 is 530 nM.

For `COc1ccc(C(C)(C)c2csc(NC(=O)NCc3ccc(NCCN)nc3)n2)cc1` [Example A202, 1-((6-((2-aminoethyl)amino)pyridin-3-yl)methyl)-3-(4-(2-(4-methoxyphenyl)propan-2-yl)thiazol-2-yl)urea], which IC50 [1] is on record?
The IC50 was 34 nM.

What about the IC50 ([2]; Homo sapiens, HEK293) of the same molecule?
Its IC50 is 5710 nM.

— patent US20240109853A1 (Shanghai Yao Yuan Biotechnology Co., Ltd., priority 2020, published 2024)
